From patent US20130253048A1, “Pharmaceutical Composition for Promoting Osteogenesis Containing Axial-equatorial Aryl-oriented Furofuran-type Lignan, and Pharmaceutical Preparation, Functional Food Product, and Health Food Product Comprising Composition” (ERINA CO., INC., priority 2010, published 2013) come the findings set out here.

The test system of data set [1] is ovariectomized mouse (type I osteoporosis model animal). Put plainly: Change of bone mass in type I osteoporosis model animal (ovariectomized mice, dosing 3 months, femur pQCT). The class given is in vivo. An excerpt:
Female Slc: ddy mice of 4 weeks old (Japan SLC, Inc.) was operated with ovariectomy to use as a type I osteoporosis model animal. Also, in order to delete the affection by invasion, a group which is operated without ovariectomy (Sham operation) is set (Sham group). These were the […] model animals.
Animal bedding were changed twice a week and always to use all fresh one, CRF-1 (Oriental Yeast Co., Ltd.) is fed as feed and deionized water as drinking water were freely given. Their body weights were weighed twice a week by the end of the experiment.
Fargesin was dissolved in 30 mL of a solution (it is referred to as “TD solution”, hereinbelow) containing 4% dimethyl sulfoxide (it is referred to as “DMSO”, hereinbelow) and 4% TWEEN 80 (both were purchased from Wako Pure Chemical Industries, Ltd.) so as that a dosage amount of fargesin becomes 20 mg/kg body wt/day, or […].
After the surgical operation, the mice were adapted to the circumstances for 5 days, and then they were divided to the Sham group, the negative control, the positive control group, and the test substance administration group (6 mice per group). The ovariectomized mice were used for the negative control group, the positive control group, and the test substance administration group.
Fargesin solution was daily administrated to the ovariectomized mice in the test group at the dosage of 20 mg/kg body wt/day (it is referred to as “F20 group”, hereinbelow) or 100 mg/kg body wt/day (it is referred to as “F100 group”, hereinbelow) for 3 month p.o.
In order to study effects of fargesin on the bone, the femur, the largest long bone, was used.
The mice in each group were killed by the cervical dislocation under diethyl ether anesthesia. Their right femurs were excised with muscles, and the muscles were removed from the femur after the excision. Lengths of the excised bones from the mice in the groups were measured, and they were dipped in 70% ethanol to be fixed.
In FIG. 3, the bone was shown schematically. The long bone (tubular bone) was composed of two thick and rounded ends (epiphysis), and thin and long part between them (a shaft). The bone extends to longitudinal direction, depending on the growth of a plate-shape epiphyseal cartilage (a growth plate) between the epiphysis and the shaft. The region of 1 mm proximal side from the A position for a measurement was set to that from 1 mm proximal region (epiphysis) from the distal growth plate as decided as the measurement region.
The bone density was measured by using the peripheral quantitative computed tomography (pQCT, XCT Research SA+, Stratec Medizintechnik GmbH, Merk Ltd) (FIG. 3B). The measurement was performed under the conditions: a diameter of 90 mm, a voxel size of 0.12 mm, a CT speed of 10 mm/sec, and a block number of 1. Bone mineral content (mg/mm), bone density (mg/cm^3), and cross section of the bone (mm^2) of the entire of tomographic images (whole bone area) were calculated.
Next, the area of the cancellous bone was extracted (peel mode 20), and then the bone mineral amount (mg/mm), the section of the bone (mm^2), and the bone density (mg/cm^3) were calculated. Further to the cortical bone, the bone mineral amount (mg/mm), the bone density (mg/cm^3), the section of the bone (mm^2), a bone thickness (mm), the periosteum perimeter of the cortical bone (mm), and the endosteum perimeter of the cortical bone (mm) were calculated.
Based on the bone diameter and the bone density measured by the pQCT, SSI was calculated. SSI is composed of Polar SSI (torsion strength in polar coordination), X-axis SSI (strength in X axis, three-point bending strength), and Y-axis SSI (Y axis strength, three-point lateral bending strength), and it is expressed by the following general equation.
Wherein, Z is the coefficient of the cross section (mm^3), CBD is the bone density of the cortical bone (mg/cm^3), and ND is the physiological bone density (1200 mg/cm^3). The coefficient Z is shown as the following equation.

The test system of another data set is TRACP5b. The data set can be described thus: Serum TRACP5b of OVX mice (bone metabolism marker). The class given is in vivo, mouse. The note with it: 80 μg/kg/day s.c.; compared to the OVX group. As for the experimental part: All obtained blood from the heart under diethyl ether anesthesia at dissection was stored at 4 degree centigrade for 24 hours. Then, the blood was centrifuged at 3,000 rpm (4,000×g) for 15 minutes to separate the sera.
According to the protocol of Mouse TRAP™ Assay (Immuno-diagnostic Systems Ltd, the United of Kingdom), TRACP5b in the obtained sera was determined.

Data set [2] has as its system ovariectomized mouse (OVX mouse). Put plainly: Bone formation in ovariectomized mouse (OVX mouse), dosing after bone resorption induction period, femur pQCT. The note with it: 80 μg/kg/day s.c. It is filed as in vivo. As for the experimental part: Four-week-old female Slc; ddy mice (Japan SLC, Inc.) were purchased, and they were divided into 8 groups without acclimate keeping (6 mice per group). They were anesthetized by using 50 mg/kg of pentobarbital to be ovariectomized (it is referred to as “OVX” herein below) or to have Sham operation (it is referred to as “Sham” herein below) under the anesthesia which is given by intraperitoneal administration of 50 mg/kg of Somnopentyl (pentobarbital sodium).
From the second day of the ovariectomy (or Sham operation), each group was maintained under the condition of 12 hour light/dark cycle, 23±3 degree centigrade as the room temperature, and humidity 55±5% for 2 months as the bone resorption induction period. The animal bedding was exchanged twice a week and all fresh bedding was used at all times. CRF-1 (Oriental Yeast Co., Ltd.) as the feed and deionized water as drinking water were freely given.
After two month period from the test start, the bone resorption induction period, the test substance were given to each group at the amount shown in the following Table 7 for 3 month.
Ninety % of MeOH fraction (Shin-i) obtained in Example 1 and Fargesin (may refer to “Far” thereafter) were respectively dissolved into TD solution at the concentration shown in Table 7, and then they were administrated per os.
Human PTH (1-34) (herein below, it is sometimes referred to as “hPTH (1-34)”) were dissolved in distilled water at the concentration of 80 μg/kg/day, and it was administrated subcutaneously.
After 3 month from the administration start, the mice belonging to all of the groups were weighed. They were anesthetized by using diethylether, and were collected their blood from their hearts, and then they were died. Then, organs such as the uterus, the white adipose tissue (WAT), the brown adipose tissue (BAT), the liver, the spleen, and both left and right lower extremities were removed. The left and right lower extremities were separated into the femurs and the tibias, and they were stored in 70% EtOH under the room temperature.
The muscles were removed from the obtained femur (right), and then its bone density and the like were measured by using pQCT employed in Example 1 under the following conditions.
Recognition of contour (CONTMODE): 2 (auto search of ROI)
Recognition method of cancellous bone: Surface & Area
Ration of cancellous bone area to all of the cross section areas: 35%
CORTMODE used in CORTBD: 1* * Voxels not larger than the standard value for distinguishing the cortical bone from the cancellous bone (threshold: threshold) were omitted. Each tissue weight was also measured.
TH value used in CORTBD: 690
Among the all data of cancellous bone density obtained from pQCT, both of the highest and the lowest data were deleted to obtain the Median. As to the other parameters were treated as the same as this, the graph was made with N=6. Statistical analysis was performed by using the Dennett's two-sided t test.

The mark [3] stands for this setting: OVX mice, B100 group: 100 μg/kg body wt/day i.p.
Setting [4] is: OVX mice, B100 group: 100 μg/kg body wt/day i.p. (text prints F100 group).
Setting [5] is: OVX mice, B100 group: 100 μg/kg body wt/day i.p., right femur, pQCT.
[6] abbreviates: OVX mice, 3 months dosing after 2-month induction.

Turning to `C[C@]12CC[C@@H]3c4ccc(O)cc4CC[C@H]3[C@@H]1CC[C@@H]2O` [β-estradiol, reference compound], the “Average body weight during mouse growth” value in data set [1] (B100 group: 100 μg/kg body wt/day i.p., versus NC group) is listed as “lower than that of NC group mice”. Moreover, in data set [1] (setting [3]), the “Cortical bone Bone density” value was 867.475 ± 13.724 mg/mL, the “Cortical bone Bone thickness” value came out at 0.365 ± 0.038 mm, the “Cortical bone adventitia diameter” value is given as 7.9895 ± 0.096 mm and the “Cortical bone lining membrane diameter” value worked out at 5.699 ± 0.229 mm. For the same compound, in data set [1] (setting [3]), the “Polar axis bone strength (Table 3)” value was 1.946 ± 0.107 mm^3; the “bone mineral mass, cancellous bone” value was determined as 0.725±0.110 mg/mm; the “bone mineral mass, whole bone” value amounted to 3.325±0.203 mg/mm. In addition, in data set [1] (setting [4]), the “bone mineral mass, cortical bone” value came to 2.163±0.230 mg/mm and the “cross section area of the bone, cortical bone” value is given as 2.4825±0.230 mm^2. For the same compound, in data set [1] (OVX mice, B100 group: 100 μg/kg body wt/day i.p., SSI from pQCT), the “Polar axis strength (polar coordinates strength)” value was 1.376±0.088 mm^3. Besides, in data set [1] (setting [5]), the “Bone density Cancellous bone” value amounted to 399.050 ± 53.851 mg/mL and the “Bone density whole bone” value was determined as 652.025 ± 28.386 mg/mL.

Turning to “hPTH(1-34): Human PTH (1-34), dissolved in distilled water, administrated subcutaneously [reference compound]”, the “level of TRACP5b in the sera” value in the data set with TRACP5b is “did not show major alteration”. Moreover, in data set [2] (5M Sham = 100), the “Bone density of cancellous bone, relative value” is listed as 76.1; the “Bone density of cortical bone, relative value” is 92.2; the “Bone density of the whole bones, relative value” worked out at 86.0. Moreover, the “Bone strength (polar coordinates torsion strength)” value in data set [2] (compared to Control OVX group) is listed as “significantly increased”. In addition, in data set [2] (setting [6]), the “Bone density of cancellous bone” value was 88.83 ± 30.90 mg/cm^2, the “Bone density of cortical bone” value is on record as 906.50 ± 32.19 mg/cm^2, the “Bone thickness of cortical bone” value was 0.22 ± 0.03 mm and the “Cross section area of cortical bone” value turned out to be 1.69 ± 0.25 mm^2. Moreover, in data set [2] (setting [6]), the “Perimeter of cortical bone adventitia” value is recorded as 8.37 ± 0.26 mm and the “Perimeter of cortical bone lining membrane” value is reported as 6.98 ± 0.34 mm. In addition, the “Bone density of the whole bones” value in data set [2] (OVX mice, 3 months dosing after 2-month induction, right femur, pQCT) stood at 452.25 ± 49.00 mg/cm^2.
